Values quoted from earlier work in US11528929B2, “Composition for treatment of overactive bladder” (priority 2019, dated 2022).

Conditions: pH at 50% bound and 50% in free form

O=C(O)CC(O)C(=O)O (stereo not shown) [malic acid]
isoelectric pH (dissociation point): 3.41
